For experiment [1], the target named is T1, human PCNA (Homo sapiens, UniProt P12004). The experiment in a line: SPR binding of peptides to His6-tagged PCNA captured by anti-His6 antibody. Conditions: for Kd: Table S2, SPR, pH 7.5, T 298, This work. (In SPR one partner is held on a chip, and binding of the other changes the refractive index at the surface.)
Method: A stock of > 100 µM PCNA in purification buffer was diluted to the working concentration of 200 nM in 10 mM NaH2PO4, 500 mM NaCl, pH 7.0, 1 mM β-mercaptoethanol. The peptides were dissolved in SPR running buffer (i.e., 10 mM HEPES, 150 mM NaCl, 0.05% (v/v) P20, pH 7.4).
Binding analyses were recorded on a Biacore T200™ instrument (GE Healthcare Life Sciences). A single cycle protocol setup was used for the injection of ligands in flow cells with PCNA captured by an anti-His antibody covalently coupled to a CM5 chip (GE Healthcare Life Sciences, Cat# BR100530). […] Remaining activated NHS-esters were blocked by injecting 35 µL 1 M ethanolamine, pH 8.5. All procedures were conducted at a flow rate of 5 µL min^−1. […] The control surface was not exposed to PCNA. […] The injection cycles alternated between injections cycles of buffer and peptide with no intervening regeneration. […] For the UNG2, APIM, and FEN1 measurements, a final injection cycle of p21 with a final concentration of 50 nM was run as a control of consistency. Complete regeneration of the flow cells between each single-cycle run was accomplished by injecting 10 mM glycine–HCl, pH 1.5 for 60 s with a flow rate of 30 µL min^−1. All measurements were carried out at 25 °C.
Fitting of the data by non-linear regression to a bimolecular interaction model, assuming pseudo-first order reaction condition yielded the association (kon) and dissociation (koff) rate constants. […] For runs with different capture levels of PCNA for each injection cycle, the responses were normalized to a common Rmax value. We used the evaluation software supplied with the instrument for global fitting (BiacoreT200 Evaluation 3.0).
The target in experiment [2] is PCNA. On the set-up: method as in 11 sources, ref PMID 15576034 ||| ref PMID 10858286 ||| ref PMID 23139781 ||| ref PMID 30655288 ||| ref PMID 28621305 ||| ... As to conditions: ITC, cited from earlier work.
Experiment [3] addresses T1, human PCNA. Kind of experiment: ITC, PCNA injected into peptide. The format is binding. A general note: In ITC the heat of successive injections is recorded.
Method: PCNA was buffer exchanged and concentrated using a 10000 MWCO filter (millipore) against the ITC buffer (10 mM HEPES, 150 mM NaCl, 1 mM EDTA, 1 mM TCEP, pH 7.4) for all experiments. The lyophilized peptides were dissolved in the ITC buffer at concentrations between 0.2 and 1 mM determined using A280. For all experiments, PCNA was injected into peptide. For p21^143–157 the peptide concentration was 10 µM, and the PCNA trimer concentration 40 µM. […] For experiments with S2, S1, and D1.2, the peptide concentrations were 20 µM, 60 µM, and 50 µM, respectively, and the PCNA trimer concentration 100 µM, 200 µM, and 269 µM, respectively. All buffer, protein, and peptide solutions were properly degassed prior to loading. ITC was performed with the microCal instrument ITC200 (Malvern). Data were recorded at 25 °C with a stirring speed of 307 rpm and a reference power of 10 µCal s^−1. The heat of dilution was determined from the final injections after saturation of the complex and was subtracted from the data for all peptides except S1 and D1.2 where saturation was not reached. Data from the ITC experiments were analyzed using the Origin 7 software package (MicroCal™). The data were fitted to a single binding site model.
All experiments were carried out in triplicates. […] In the case of the D1.2 peptide, the stoichiometry was kept constant at three peptides per PCNA molecule to achieve convergence in the fitting procedure.
Experiment [4] concerns the target PCNA. On the set-up: method as in 4 sources, one per row (each row's own in cited_ref): ref PMID 19208623 ||| ref PMID 8876181 ||| ref PMID 24728180 ||| ref PMID 10899134. Conditions: SPR, cited from earlier work.
The target of experiment [5] is PCNA. Conditions: cited from earlier work. An excerpt:
Supplement 18_2019_3150_MOESM1_ESM.docx, table 2: Table S2: Binding affinities of curated PCNA binding proteins. | column: KD (M)

The mark [6] stands for this setting: SPR single-cycle kinetics, bimolecular model, 10 mM HEPES, 150 mM NaCl, 0.05% P20, pH 7.4, 25 °C.
Setting [7] is: pH 7.5, T 303, ref PMID 15576034.
[8] abbreviates: pH 7.5, T 298, ref PMID 19208623.
The mark [9] stands for this setting: pH 7.5, T 279, ref PMID 23677613.

The text below walks through data of article PMC6881253, “The PCNA interaction motifs revisited: thinking outside the PIP-box” (Cellular and Molecular Life Sciences: CMLS, 2019).

Like-named read-outs stand apart in the source and are kept apart here. Ends that are not written are not given here.

T1 sequence (P12004 whole entry): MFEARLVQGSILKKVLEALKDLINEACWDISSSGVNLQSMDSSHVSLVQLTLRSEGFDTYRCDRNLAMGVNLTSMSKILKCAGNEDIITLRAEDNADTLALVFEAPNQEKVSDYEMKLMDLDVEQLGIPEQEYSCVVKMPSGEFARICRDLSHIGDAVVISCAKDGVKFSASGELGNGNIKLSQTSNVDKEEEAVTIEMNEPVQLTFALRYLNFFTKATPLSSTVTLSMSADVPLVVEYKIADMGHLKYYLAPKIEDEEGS

For orientation: Kd means the equilibrium constant for the complex coming apart. The substance Ac-TQGRLDDFFKVTGSL-NH2 [FEN1] came in with a dissociation constant Kd at human PCNA [1] of 44.9 µM. For orientation: koff means a measure of how fast the partners let go of each other. As usually defined, the kon is the second-order rate constant of association. A higher kon goes with faster complex formation. For the substance Ac-RQTSMTDFYHSKRRL-NH2 [p21], at human PCNA [1] (setting [6]), the koff was 0.14 ± 0.0003 s⁻¹ and the kon came to 1.7e+06 ± 1e+10 M⁻¹ s⁻¹. With “QVRRQSLASKHGSDITRFLVKK [ZRANB3 1058–79, literature ZRANB3 APIM peptide]”, the dissociation constant Kd on PCNA [2] (pH not given, T 298, ref PMID 28621305) was 9.2 µM. On to Ac-MDRWLVKW-NH2 [APIM], for which, at human PCNA [1], the affinity, expressed as Kd, was 10.9 µM. Same read-out and setting: the result for Ac-RQSTLYSFFPKSPAL-NH2 [MSH6] reads 2.61 µM. Take “GKANRQVSITGFFQRK* [p66Polδ 451–466, literature peptide of DNA polymerase δ p66 subunit]”: at PCNA [2] (setting [7]), the dissociation constant Kd is 15.6 µM. On to “Ac-RKRRATSMTDFYHSKRRL-NH2 [p21^140–157,Q144A]”, for which, on human PCNA [3] (ITC), the “fold drop in the affinity for PCNA on mutating Q at the first position to alanine” value is on record as 50 fold. In the case of “RQGSTQGRLDDFFKVTGSLSSA [FEN1 332–353, literature FEN1 peptide]”, the Kd at PCNA [2] (setting [7]) was 59 µM.

Take “CKRPRPEGMQTLESFFKPLTH [PolEta 694–713, literature DNA polymerase η peptide]”: at PCNA [4] (setting [8]), the equilibrium dissociation constant (Kd) is 0.4 µM. Turning to “PKWQKGIGEFFR [p15 59–70, literature p15(PAF) peptide]”, the dissociation constant Kd on PCNA [2] (pH 7, T 308, ref PMID 25762514) is 83 µM. Consider Ac-RKRRQGRLDDFFHSKRRL-NH2, for which the “fold change (increase) of affinity for PCNA on grafting p21 flanking regions to Fen1” value at human PCNA [3] (ITC, versus Fen1 peptide) was 60 fold. Turning to “PRPEGMQTLESFFKPLTH* [PolEta 696–713, literature DNA polymerase η peptide]”, on PCNA [2] (pH 7.4, T 298, ref PMID 26903512), the Kd was 11 µM. With “MDRFLVKGAQGGLLRK [ABH2 1-16, literature ABH2 APIM peptide]”, the dissociation constant Kd at PCNA [2] (setting [9]) was 0.32 µM. On to “KRRQTSMTDFYH [p21 141–152, literature p21 peptide]”, for which the Kd at PCNA [2] (pH 7, T 303, ref PMID 23139781) is 0.625 µM; on PCNA [2] (pH 7, T 308, ref PMID 23139781), 1.1 µM.

As for “p15 1–111: full-length p15(PAF) protein, literature”, the Kd is 0.11 µM on PCNA [2] (pH 7, T 298, ref PMID 25762514) and 2.5 µM at PCNA [2] (pH 7, T 308, ref PMID 25762514). Take “FTHFEKEKQHDIRSFFVPQPKK [ZRANB3 511–532, literature ZRANB3 PIP-box peptide]”: at PCNA [5] (method not given, pH 7.5, T 298, ref PMID 28621305), the dissociation constant (Kd) is 4.8 µM.

Take Ac-SESSQTSMTDFYHSKRRL-NH2 [S1]: at human PCNA [3] (10 mM HEPES, 150 mM NaCl, 1 mM EDTA, 1 mM TCEP, pH 7.4, 25 °C, one set of sites, mean of triplicates), the Kd came to 8.3 ± 1.9 µM. Turning to “RGQGSQRCIPEFFLAGKQPCTN [FBH1 52–72, literature FBH1 peptide]”, at PCNA [2] (setting [9]), the dissociation constant (Kd) is 0.25 µM.

In the case of MIGQKTLYSFFTPSP [UNG2], the dissociation constant (Kd) at human PCNA [1] amounted to 34.1 µM. In the case of “KDKFIRRWVHKEGFSG [FBH1 605-620, literature FBH1 peptide]”, the Kd on PCNA [2] (setting [9]) is 0.59 µM. For the substance “SKSRQGSTQGRLDDFF [FEN1 329–344, literature FEN1 peptide]”, at PCNA [4] (pH 7.4, T not given, ref PMID 24728180), the dissociation constant (Kd) is 0.0846 µM.

On to MGRKRLITDSYPVVKRREG [p12 1-19], for which the dissociation constant Kd on PCNA [2] (pH 7.0, T 298, ref PMID 30655288) is 38 µM; on PCNA [5] (NMR, pH 7.0, T 308, ref PMID 30655288), 130 µM. “KQRVRVKTVPSLFQAKLD TFLWS [TRAIP 447–469, literature TRAIP peptide]”: at PCNA [2] (pH 7.4, T 298, ref PMID 26711499), the Kd is 30.7 µM. In the case of “KTSPGRSVKEEAQNLIRHFFHGRARCES [RecQ5 952-979, literature RecQ5 peptide]”, the Kd at PCNA [2] (pH 7.0, T 308, ref PMID 30655288) was 210 µM. On to “PANGEQLHLVNYVEDTLDSIES [ING1 4–25, literature ING1 peptide]”, for which the equilibrium dissociation constant (Kd) at PCNA [5] (NMR, pH 7, T 308, ref PMID 23139781) is 12500 µM. “QHGKKDSKITDHFMRLPKA [PARG 402–420, literature PARG peptide]”: the Kd on PCNA [2] (pH 7.4, T 298, ref PMID 28934471) is 3.3 µM.

For “SQGRKRRQTSMTDFYHSKRR [p21 137–156, literature p21 peptide]”, the Kd at PCNA [4] (setting [8]) was 0.065 µM.
